{
  "source": "patent US9242928B2",
  "about": "“Compound, kinesin spindle protein inhibitor, and application thereof” (FUJITSU LIMITED, priority 2010, dated 2016)",
  "target": "T1, human KSP motor domain (Uniprot P52732, residues 1-387) (Homo sapiens, UniProt P52732)",
  "T1 construct": "human KSP motor domain (Uniprot P52732, residues 1-387); His6; made in house; host or cells: E. coli BL21 Star (DE3)",
  "T1 sequence (P52732 1-387)": "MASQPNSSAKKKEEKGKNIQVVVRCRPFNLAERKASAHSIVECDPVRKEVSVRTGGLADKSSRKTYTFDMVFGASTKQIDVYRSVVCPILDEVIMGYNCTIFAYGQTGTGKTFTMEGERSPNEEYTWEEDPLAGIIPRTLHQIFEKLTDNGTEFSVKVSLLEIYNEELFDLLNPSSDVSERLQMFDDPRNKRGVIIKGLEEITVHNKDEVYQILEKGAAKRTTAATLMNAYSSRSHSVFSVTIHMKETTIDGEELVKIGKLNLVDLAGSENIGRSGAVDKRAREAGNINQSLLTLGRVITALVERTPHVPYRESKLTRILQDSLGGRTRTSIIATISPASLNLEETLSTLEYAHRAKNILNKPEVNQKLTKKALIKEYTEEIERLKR",
  "assay": "Inhibitory activity against kinesin spindle protein (microtubule-stimulated ATPase, quinaldine red Pi detection, absorbance at 525 nm)",
  "type": "biochemical",
  "conditions": "30 nM kinesin spindle protein, 1 mM ATP, 37° C., 20 min",
  "method": "Each of the compounds represented by Structural Formulas (1) to (4) was measured for inhibitory activity against a kinesin spindle protein by the following method referring to the methods described in Elizabeth B. Cogan et al., Analytical Biochemistry, 1999, 271, pp. 29-35 and Keith W. Rickert et al., Archives of Biochemistry and Biophysics, 2008, 469, pp. 220-231.\nThe human KSP motor domain (Uniprot P52732, residues 1-387) was cloned into the pRSETa vector (product of Invitrogen Co., Ltd) and expressed in E. coli BL21 Star (DE3) (product of Invitrogen Co., Ltd) with His6 tag for purification.\nEach of the compounds represented by Structural Formulas (1) to (4) was prepared in 100% by mass DMSO (dimethylsulfoxide) at 100-fold concentration (100×). Then, the resulting mixture was diluted with 1.00% by mass DMSO to each of 0.001 mM, 0.003 mM, 0.01 mM, 0.03 mM, 0.1 mM, 0.3 mM, 1 mM, 3 mM, 10 mM and 30 mM.\nA reaction mixture having a formulation described in the following Table 1 was prepared. Specifically, 28.5 μL of water, 1 μL ([…]) of the above-purified kinesin spindle protein, 5 μL of a 10× reaction buffer (150 mM PIPES (1,4-piperazine ethanesulfonic acid) (pH 7.0), 10 mM magnesium chloride, 10 mM EGTA (glycol ether diamine tetraacetate)), 10 μL of 5× microtubules solution (330 μg/mL microtubules, 15 mM PIPES (pH 7.0), 1 mM magnesium chloride, 10 μM Taxol) and 0.5 μL of the above-prepared 100× compound (the compound represented by Structural Formula (1), (2), (3) or (4)) were mixed together to prepare 45 μL of a reaction mixture, which was incubated at 37° C. for 10 min. Then, 5 μL of a 100×ATP solution (10 mM ATP, 10 mM PIPES (pH 7.0)) was added to the reaction mixture to initiate the reaction. Immediately after that, the reaction mixture was incubated at 37° C. for 20 min. […]\nAfter the reaction, 150 μL of Quench C buffer (the formulation of which is given below) was added the reaction mixture to terminate the reaction, followed by incubating at room temperature for 5 min. Then, the reaction mixture was measured for absorbance at 525 nm with a microplate reader (SpectraMax, product of Molecular Devices Co., Ltd.). […]\nThe kinesin spindle protein decomposes ATP into ADP and Pi (phosphoric acid). […] Thus, the amount of the formed Pi can be measured by measuring the absorbance at 525 nm. With the absorbance at 525 nm of the high control (the amount of the formed Pi) being 100, comparing the absorbance of the high control with absorbance of test groups to which the above compounds have been added can determine whether the activity of the kinesin spindle protein is inhibited.\nThat is, the inhibitory rate of the activity of the kinesin spindle protein can be calculated from the following calculation formula. […]",
  "data": [
    {"smiles": "CCN(CC)C(=O)CN(Cc1ccccc1)c1ccc2c(c1F)C=CC2(C)C", "note": "[Structural Formula (1)]", "values": [
      {"measurement": "Inhibitory rate (%)", "setting": "compound concentration 10 μM", "value": 44.5, "unit": "%"}
    ]},
    {"smiles": "CCN(CC)C(=O)CN(Cc1ccccc1)c1ccc2c(c1F)CCC2=O", "note": "[Structural Formula (2), 2-(benzyl(4-fluoro-1-oxo-2,3-dihydro-1H-inden-5-yl)amino)-N,N-diethylacetamide]", "values": [
      {"measurement": "Inhibitory rate (%)", "setting": "compound concentration 88 μM", "value": 50, "unit": "%"}
    ]},
    {"smiles": "CCN(CC)C(=O)CN(Cc1ccccc1)c1ccc2c(c1)C=CC2C", "note": "(stereo not shown) [Structural Formula (3)]", "values": [
      {"measurement": "Inhibitory rate (%)", "setting": "compound concentration 39 μM", "value": 50, "unit": "%"}
    ]},
    {"smiles": "CC1C=Cc2cc(N(CC(=O)N(C)C)Cc3ccccc3)ccc21", "note": "(stereo not shown) [Structural Formula (4)]", "values": [
      {"measurement": "Inhibitory rate (%)", "setting": "compound concentration 100 μM", "value": 79.8, "unit": "%"}
    ]}
  ]
}
